Laboratory results taken from US20140371244A1, “METHOD FOR TREATING PROSTATE CANCER BY USE OF PHARMACEUTICAL COMPOSITION CONTAINING A3 ADENOSINE RECEPTOR AGONIST” (priority 2009, published 2014).

Key:
IL-1β = IL-1β gene and protein expression in LPS-stimulated RAW 264.7 cells; assay type: cell-based, mouse; details: 5, 10, 20 μM, LPS 1 μg/ml
Procedure: IL-1β is one of major factors involved in inflammation and functions to induce the expression of several genes related to inflammation and tissue injury. Thus, the effects of the inventive composition on the expressions of mRNA gene and protein of IL-1β were tested. Specifically, RAW 264.7 cells were pretreated with each of 20, 10 and 5 μM of the inventive composition (thio-Cl-IB-MECA) and treated with LPS (1 μg/ml) to induce inflammatory reactions, followed by culture for 4 hours. The RNA fraction was collected and cultured for 8 hours, and then the protein was collected and subjected to RT-PCR and Western blot.

iNOS = assay: Expression of iNOS protein and gene (Western blot, RT-PCR) in LPS-stimulated RAW 264.7 cells; assay type: cell-based, mouse
Procedure: The effects of the inventive composition on the expression of iNOS protein and mRNA were examined by Western blot analysis and RT-PCR. Specifically, RAW 264.7 cells were diluted with 10% FBS-containing medium to a density of 1×10^6 cells per 100 mm culture dish and cultured under the conditions of 37° C. and 5% CO2 for 24 hours, followed by washing twice with PBS. The cells were pretreated with each of 20 μM (the highest concentration showing no cytotoxicity), 10 μM and 5 μM of thio-Cl-IB-MECA in 10% FBS-containing medium, and inflammatory reactions in the cells were induced by LPS (1 μg/ml), followed by culture for 18 hours. […] The cells were thawed at 37° C. immediately before use and used in protein quantification and electrophoresis.
Protein quantification was performed using the BCA method, and […] of the protein was electrophoresed on 8-12% SDS-polyacrylamide gel at 150 V for 110 minutes. […] The membrane was washed 2-3 times with PBST for 5 minutes each time, after which HRP-conjugated secondary antibody was diluted at a ratio of 1:1,500-1:2,000 and incubated with the membrane at room temperature for 2-3 hours. the membrane was washed three times with PBST for 5 minutes each time and treated with a Western blot substrate (WESTSAVE Up™), and the produced luminescence was examined using LAS-3000. […]

HCT 116 cells = assay: RT-PCR of cell cycle regulation-related genes in HCT 116 cells; assay type: cell-based, human; details: 40 μM
Procedure: A test was carried out to examine whether cell cycle regulation-related genes involved in the G1 phase are expressed.
Specifically, HCT 116 cells were diluted with 10% FBS-containing medium to a density of 1×10^6 cells per 100 mm culture dish and cultured under the conditions of 37° C. and 5% CO2 for 24 hours, followed by washing twice with PBS. Thio-Cl-IB-MECA was diluted in 10% FBS-containing medium to a concentration of 40 μM, and then 10 ml of the culture medium prepared in the 100 mm culture dish was added thereto and cultured for a given time. The non-adherent cells and adherent cells in the cell medium were collected and washed twice with PBS. Then, the cells were lysed with TRI reagent (TRIzol), after which CHCl3 was added thereto and RNA was extracted from the cells and precipitated using isopropyl alcohol. The RNA precipitate was washed with 70% ethanol and dried in air, after which it was suspended in nuclease-free water. The suspension was heated at 55° C. for 10 minutes and then at 70° C. for 5 minutes, so that the RNA was present as a single chain. The total RNA was quantified with NanoDrop, after which it was diluted to a concentration of 1 μg/μl and made into cDNA using avian myeloblastosis virus (AMV) reverse transcriptase and oligo (dT)15 primers. […]

RAW 264.7 cells = assay: MTT assay, cytotoxicity in RAW 264.7 cells; assay type: cell-based, mouse; details: 20 μM (highest concentration)
Procedure: In order to example whether the iNOS production inhibitory effect is attributable to the toxicity of the sample itself (inventive composition, thio-Cl-IB-MECA), an MTT (3-(4,5-dimethylthiazol-2-yl)-2,5-diphenyltetrazolium bromide) assay was performed.

SMILES: CNC(=O)[C@H]1S[C@@H](n2cnc3c(NCc4cccc(I)c4)nc(Cl)nc32)[C@H](O)[C@@H]1O [thio-Cl-IB-MECA, 2-chloro-N^6-(3-iodobenzyl)-4′-thioadenosine-5′-N-methyluronamide]
- expression of IL-1β gene (IL-1β; RT-PCR): concentration-dependently inhibited
- expression of IL-1β protein (IL-1β; Western blot): concentration-dependently inhibited
- expression of iNOS gene (iNOS; RT-PCR, 5, 10 or 20 μM, vs LPS control): inhibited the expression of iNOS gene in a concentration-dependent manner
- expression of iNOS protein (iNOS; Western blot, 5, 10, 20 μM, LPS 1 μg/ml, 18 hours): inhibited the expression of iNOS protein in a concentration-dependent manner
- gene expression of cyclin D1 and c-Myc (HCT 116 cells): inhibited the expression
- gene expression of p21 and p53 (HCT 116 cells): increased the expression
- viability of RAW 264.7 cells (MTT) (RAW 264.7 cells): 80%
